The values below come from ChEMBL document CHEMBL4304811, “Development of a Water-Soluble Indolylmaleimide Derivative IM-93 Showing Dual Inhibition of Ferroptosis and NETosis” (ACS Med Chem Lett, 2019).

Structures are written as SMILES. Activity calls are given as the source filed them. The rule behind the calls is not given here.

The target of test [1] is Protein kinase C delta type (Homo sapiens) (UniProt Q05655). Put plainly: Binding affinity to wild-type human partial length PRKCD (Q328 to D676 residues) expressed in bacterial expression system assessed as residual binding level at 10 uM by Kinomescan method relative to control.
Test [2] concerns the target Ribosomal protein S6 kinase alpha-1 (Homo sapiens) (UniProt Q15418). The experiment in a line: Binding affinity to wild-type human partial length N-terminal RSK1 Kinase domain 1 (M1 to E388 residues) expressed in bacterial expression system assessed as residual binding level at 10 uM by Kinomescan method relative to control.
Test [3] deals with Wee1-like protein kinase 2 (Homo sapiens) (UniProt P0C1S8). Put plainly: Binding affinity to wild-type human partial length WEE2 (M204 to K492 residues) expressed in bacterial expression system assessed as residual binding level at 10 uM by Kinomescan method relative to control.
Test [4] has as its target Serine/threonine-protein kinase MRCK gamma (Homo sapiens) (UniProt Q6DT37). Put plainly: Binding affinity to wild-type human partial length DMPK2 (S46 to S408 residues) expressed in bacterial expression system assessed as residual binding level at 10 uM by Kinomescan method relative to control.
For test [5], the target named is Mitogen-activated protein kinase 15 (Homo sapiens) (UniProt Q8TD08). The experiment in a line: Binding affinity to wild-type human partial length ERK8 (M1 to P437 residues) expressed in bacterial expression system assessed as residual binding level at 10 uM by Kinomescan method relative to control.
For test [6], the system named is Neutrophil. Put plainly: Inhibition of PMA-induced NETosis in human neutrophils assessed as reduction in lipid peroxidation at 20 uM preincubated for 30 mins followed by PMA stimulation measured after 30 mins by C11-Bodipy fluorescent dye based flow cytometry. Background: In flow cytometry, cells or beads pass a laser one at a time.
Test [7] deals with Serine/threonine-protein kinase pim-1 (Homo sapiens) (UniProt P11309). The experiment in a line: Binding affinity to wild-type human partial length PIM1 (A15 to K313 residues) expressed in bacterial expression system assessed as residual binding level at 10 uM by Kinomescan method relative to control.
Test [8] concerns the target Calcium/calmodulin-dependent protein kinase type 1D (Homo sapiens) (UniProt Q8IU85). Put plainly: Binding affinity to wild-type human partial length CAMK1D (M1 to K299 residues) expressed in bacterial expression system assessed as residual binding level at 10 uM by Kinomescan method relative to control.
For test [9], the target named is Inhibitor of nuclear factor kappa-B kinase subunit epsilon (Homo sapiens) (UniProt Q14164). The experiment in a line: Binding affinity to wild-type human full length IKK-epsilon (M1 to V716 residues) expressed in mammalian expression system assessed as residual binding level at 10 uM by Kinomescan method relative to control.
The target of test [10] is Serine/threonine-protein kinase PRP4 homolog (Homo sapiens) (UniProt Q13523). The experiment in a line: Binding affinity to wild-type human partial length PRP4 (D657 to I1007 residues) expressed in bacterial expression system assessed as residual binding level at 10 uM by Kinomescan method relative to control.
The target of test [11] is Cyclin-dependent kinase 3 (Homo sapiens) (UniProt Q00526). The experiment in a line: Binding affinity to wild-type human full length CDK3 (M1 to H305 residues) expressed in bacterial expression system assessed as residual binding level at 10 uM by Kinomescan method relative to control.
Test [12] concerns the target Mitotic checkpoint serine/threonine-protein kinase BUB1 (Homo sapiens) (UniProt O43683). The experiment in a line: Binding affinity to wild-type human partial length BUB1 (Q724 to K1085 residues) expressed in mammalian expression system assessed as residual binding level at 10 uM by Kinomescan method relative to control.
In test [13] the target is Dual specificity mitogen-activated protein kinase kinase 1 (Homo sapiens) (UniProt Q02750). The experiment in a line: Binding affinity to wild-type human full length MEK1 (M1 to V393 residues) expressed in mammalian expression system assessed as residual binding level at 10 uM by Kinomescan method relative to control.
The target of test [14] is Dual specificity protein kinase CLK4 (Homo sapiens) (UniProt Q9HAZ1). The experiment in a line: Binding affinity to wild-type human partial length CLK4 (R135 to K481 residues) expressed in bacterial expression system assessed as residual binding level at 10 uM by Kinomescan method relative to control.
The target of test [15] is Tyrosine-protein kinase Tec (Homo sapiens) (UniProt P42680). The experiment in a line: Binding affinity to wild-type human partial length TEC (L341 to D620 residues) expressed in bacterial expression system assessed as residual binding level at 10 uM by Kinomescan method relative to control.
The target in test [16] is Mitogen-activated protein kinase 6 (Homo sapiens) (UniProt Q16659). The experiment in a line: Binding affinity to wild-type human partial length ERK3 (M1 to P413 residues) expressed in bacterial expression system assessed as residual binding level at 10 uM by Kinomescan method relative to control.
The target of test [17] is 3-phosphoinositide-dependent protein kinase 1 (Homo sapiens) (UniProt O15530). The experiment in a line: Binding affinity to wild-type human full length PDPK1 (M1 to Q556 residues) expressed in bacterial expression system assessed as residual binding level at 10 uM by Kinomescan method relative to control.
Test [18] deals with Serine/threonine-protein kinase PLK3 (Homo sapiens) (UniProt Q9H4B4). Put plainly: Binding affinity to wild-type human partial length PLK3 (A42 to L334 residues) expressed in mammalian expression system assessed as residual binding level at 10 uM by Kinomescan method relative to control.
Test [19] has as its system Tyrosine-protein kinase ABL1 (Homo sapiens), P00519 [M351T]. The experiment in a line: Binding affinity to human phosphorylated ABL1 M351T mutant (S229 to K512 residues) expressed in mammalian expression system assessed as residual binding level at 10 uM by Kinomescan method relative to control.
The target in test [20] is Serine/threonine-protein kinase BRSK1 (Homo sapiens) (UniProt Q8TDC3). The experiment in a line: Binding affinity to wild-type human partial length BRSK1 (M1 to E754 residues) expressed in bacterial expression system assessed as residual binding level at 10 uM by Kinomescan method relative to control.
The target of test [21] is Serine/threonine-protein kinase ICK (Homo sapiens) (UniProt Q9UPZ9). Put plainly: Binding affinity to wild-type human partial length ICK (M1 to P314 residues) expressed in mammalian expression system assessed as residual binding level at 10 uM by Kinomescan method relative to control.
The test system of test [22] is Receptor-type tyrosine-protein kinase FLT3 (Homo sapiens), P36888 [R834Q]. The experiment in a line: Binding affinity to human partial length FLT3 R834Q mutant (V592 to Y969 residues) expressed in mammalian expression system assessed as residual binding level at 10 uM by Kinomescan method relative to control.
Test [23] deals with Myosin-IIIb (Homo sapiens) (UniProt Q8WXR4). The experiment in a line: Binding affinity to wild-type human partial length MYO3B (M1 to D357 residues) expressed in bacterial expression system assessed as residual binding level at 10 uM by Kinomescan method relative to control.
The target in test [24] is Tyrosine-protein kinase ZAP-70 (Homo sapiens) (UniProt P43403). The experiment in a line: Binding affinity to wild-type human partial length ZAP70 (D20 to G299 residues) expressed in mammalian expression system assessed as residual binding level at 10 uM by Kinomescan method relative to control.

`CC(C)N1C(=O)C(NCCCN(C)C)=C(c2cn(C)c3ccccc23)C1=O.Cl`: the Activity in test [1] was 100%; in [2], 98%; in test [3], 100%; in test [4], 93%; in test [5], 95%; in test [7], 100%. The Activity was 83% in test [8]; 77% in test [9]; 86% in [10]; 99% in test [11]; 92% in test [12]; 84% in test [13]. Moreover, the Activity was determined as 95% in test [14]; 99% in test [15]; 100% in [16]; 89% in [17]; 100% in test [18]; 93% in test [19]. Also, the Activity in test [20] amounted to 85%; in test [21], 81%; in test [22] it was 100%; in [23] it was 90%; in [24], 100%. For the same molecule, the inhibition entry in test [6] was “Active”.
